Assay results from patent US4069035A, “1-(2-Carboxyaryl)-3-aryl-1,2,4-triazoles and use as herbicides” (E. I. Du Pont de Nemours and Company, priority 1976, dated 1978).

Columns and labels:
rice [1] = test: preemergence plant growth test; assay type: in vivo; conditions: 2k/ha
Text: (§1) The imidazole and triazole compounds of the invention are useful as plant growth modifiers when applied to plants. The compounds are applied to the immediate area where the plant is developing and growing, including preemergence and postemergence application.

nutsedge [2] = test: preemergence plant growth test; assay type: in vivo; conditions: 2k/ha
Text: as §1

soybeans [3] = test: preemergence plant growth test; assay type: in vivo; conditions: 2k/ha; for epinastic response: soybeans
Text: as §1

corn [4] = test: preemergence plant growth test; assay type: in vivo; conditions: 2k/ha
Text: as §1

crabgrass = test: preemergence plant growth test; assay type: in vivo; conditions: 2k/ha
Text: as §1

cassia [5] = test: preemergence plant growth test; assay type: in vivo; conditions: 2k/ha
Text: as §1

wild oats [6] = test: preemergence plant growth test; assay type: in vivo; conditions: 2k/ha
Text: as §1

barnyard grass [7] = test: preemergence plant growth test; assay type: in vivo; conditions: 2k/ha
Text: as §1

morning glory [8] = test: preemergence plant growth test; assay type: in vivo; conditions: 2k/ha
Text: as §1

wheat [9] = test: preemergence plant growth test; assay type: in vivo; conditions: 2k/ha
Text: as §1

cocklebur [10] = test: preemergence plant growth test; assay type: in vivo; conditions: 2k/ha
Text: as §1

[11] = pKa by titration against aqueous NaOH (half neutralization point), buffer range; assay type: physicochemical; conditions: for pKa: dimethylsulfoxide/water, 0.09995N NaOH, half neutralization point; for Buffer Range: range 1 acid:10 salt to 10 acid:1 salt
Protocol: The selected acids listed in Table IX (65-84 mg samples, weighed accurately) were respectively dissolved in a mixture of dimethylsulfoxide (25 ml) and water (10-25 ml) and titrated against 0.09995N aqueous sodium hydroxide using an automatic titrimeter (Metrohm Potentiograph Model E 336). According to the general theory of buffer solutions (A. I. Vogel, "A Textbook of Quantitative Inorganic Analysis, Theory and Practice," Longmans, Green, London (1948)), the following relationship exists in a dilute solution (0.05-0.2M) of a weak acid to which small additions of acid or base are made
pH = pKa + log [Salt]/[Acid]
The pH of the solution is mainly determined by the pKa of the acid, and in general the buffering capacity (ability to withstand pH change upon addition of acid or base) is maintained within the range 1 acid:10 salt to 10 acid:1 salt, a hundred-fold variation of concentration, or a change of two pH units. The buffer ranges of each of the acids is shown in the third column of Table IX. The acids are useful as buffers in weakly acidic solutions.

rice [12] = test: postemergence plant growth test; assay type: in vivo; conditions: 2k/ha
Text: as §1

nutsedge [13] = test: postemergence plant growth test; assay type: in vivo; conditions: 2k/ha
Text: as §1

bush beans = test: postemergence plant growth test; assay type: in vivo; conditions: 2k/ha
Text: as §1

soybeans [14] = test: postemergence plant growth test; assay type: in vivo; conditions: 2k/ha
Text: as §1

corn [15] = test: postemergence plant growth test; assay type: in vivo; conditions: 2k/ha
Text: as §1

cassia [16] = test: postemergence plant growth test; assay type: in vivo; conditions: 2k/ha
Text: as §1

wild oats [17] = test: postemergence plant growth test; assay type: in vivo; conditions: 2k/ha
Text: as §1

morning glory [18] = test: postemergence plant growth test; assay type: in vivo; conditions: 2k/ha
Text: as §1

wheat [19] = test: postemergence plant growth test; assay type: in vivo; conditions: 2k/ha
Text: as §1

sorghum [20] = test: postemergence plant growth test; assay type: in vivo; conditions: 2k/ha
Text: as §1

cocklebur [21] = test: postemergence plant growth test; assay type: in vivo; conditions: 2k/ha
Text: as §1

sorghum [22] = test: preemergence plant growth test; assay type: in vivo; conditions: 2k/ha
Text: as §1

cotton = test: postemergence plant growth test; assay type: in vivo; conditions: 2k/ha
Text: as §1

barnyard grass [23] = test: postemergence plant growth test; assay type: in vivo; conditions: 2k/ha
Text: as §1

With `O=C(O)c1ccccc1-n1cnc(-c2ccccc2)c1` [Example 1, 1-(2-carboxyphenyl)-4-phenylimidazole] the epinastic response (rice [1]) was “very strong hormonal effect (epinastic response)”, the emergence (nutsedge [2]) was “inhibited” and the emergence (soybeans [3]; soybean) was “inhibited”. The epinastic response (soybeans [3]) was “very strong hormonal effect (epinastic response)”, the epinastic response (corn [4]) was “very strong hormonal effect (epinastic response)” and the emergence (crabgrass) was “inhibited”. For the same compound, the epinastic response (cassia [5]) was “very strong hormonal effect (epinastic response)”, the emergence (wild oats [6]) was “inhibited” and the epinastic response (barnyard grass [7]) was “very strong hormonal effect (epinastic response)”. For the same compound, the epinastic response (morning glory [8]) was “very strong hormonal effect (epinastic response)”, the epinastic response (wheat [9]) was “very strong hormonal effect (epinastic response)” and the epinastic response (cocklebur [10]) was “very strong hormonal effect (epinastic response)”. The pKa [11] was 4.91, the “Buffer Range” value [11] was 3.9 - 5.9 pH Units and the epinastic response (rice [12]) was “epinastic response”. For the same compound, the growth (nutsedge [13]) was “retarded”, the epinastic response (bush beans) was “epinastic response” and the epinastic response (soybeans [14]) was “epinastic response”. The epinastic response (corn [15]) was “epinastic response”, the epinastic response (cassia [16]) was “epinastic response” and the epinastic response (wild oats [17]) was “epinastic response”. For the same compound, the epinastic response (morning glory [18]) was “epinastic response”, the epinastic response (wheat [19]) was “epinastic response” and the epinastic response (sorghum [20]) was “epinastic response”. For the same compound, the epinastic response (cocklebur [21]) was “epinastic response”.
In the case of `O=C(O)c1ccccc1-n1cnc(-c2ccc(Cl)cc2)c1` [Example 2, 1-(2-carboxyphenyl)-4-(4-chlorophenyl)imidazole], the epinastic response (rice [1]) is reported as “very strong epinastic responses”, the epinastic response (soybeans [3]) is reported as “very strong epinastic responses” and the epinastic response (corn [4]) is reported as “very strong epinastic responses”. The epinastic response (crabgrass) was “very strong epinastic responses”, the epinastic response (wild oats [6]) was “very strong response” and the epinastic response (wheat [9]) was “very strong response”. For the same compound, the epinastic response (sorghum [22]) was “very strong response”, the epinastic response (bush beans) was “epinastic response” and the axillary stimulation (soybeans [14]) was “strong axillary stimulation”. For the same compound, the epinastic response (corn [15]) was “epinastic response”, the epinastic response (morning glory [18]) was “epinastic response” and the epinastic response (cotton) was “epinastic response”. For the same compound, the epinastic response (sorghum [20]) was “epinastic response”.
In the case of `COc1ccc(-c2cn(-c3ccccc3C(=O)O)cn2)cc1` [Example 3, 1-(2-carboxyphenyl)-4-(4-methoxyphenyl)imidazole], the pKa [11] is reported as 5.08, the “Buffer Range” value [11] is reported as 4.1 - 6.1 pH Units and the epinastic response (rice [12]) is reported as “epinastic response”. For the same compound, the epinastic response (bush beans) was “epinastic response”, the axillary stimulation (soybeans [14]) was “axillary stimulation” and the epinastic response (soybeans [14]) was “epinastic response”. The epinastic response (corn [15]) was “epinastic response”, the axillary stimulation (cassia [16]) was “axillary stimulation” and the epinastic response (cassia [16]) was “epinastic response”. For the same compound, the axillary stimulation (barnyard grass [23]) was “axillary stimulation”, the epinastic response (cotton) was “epinastic response” and the epinastic response (sorghum [20]) was “epinastic response”. The epinastic response (cocklebur [21]) was “epinastic response”.
In the case of `Cc1ccc(-c2cn(-c3ccccc3C(=O)O)cn2)cc1` [Example 4, 1-(2-carboxyphenyl)-4-(4-methylphenyl)imidazole], the epinastic response (rice [1]) is reported as “very strong epinastic responses”, the epinastic response (soybeans [3]) is reported as “very strong epinastic responses” and the epinastic response (corn [4]) is reported as “very strong epinastic responses”. The epinastic response (crabgrass) was “very strong epinastic responses”, the epinastic response (wild oats [6]) was “moderate to strong response” and the epinastic response (wheat [9]) was “moderate to strong response”. The epinastic response (sorghum [22]) was “moderate to strong response”, the pKa [11] was 5.59 and the “Buffer Range” value [11] was 4.6 - 6.6 pH Units. The epinastic response (bush beans) was “epinastic response”, the axillary stimulation (soybeans [14]) was “strong axillary stimulation” and the epinastic response (corn [15]) was “epinastic response”. The epinastic response (morning glory [18]) was “epinastic response”, the epinastic response (cotton) was “epinastic response” and the epinastic response (sorghum [20]) was “epinastic response”.
With `O=C(O)c1ccccc1-n1cnc(-c2ccccc2)n1` [Example 5, 1-(2-carboxyphenyl)-3-phenyl-1,2,4-triazole] the pKa [11] was 5.91, the “Buffer Range” value [11] was 4.9 - 6.9 pH Units and the epinastic response (rice [12]) was “epinastic response”. For the same compound, the epinastic response (nutsedge [13]) was “epinastic response”, the epinastic response (soybeans [14]) was “epinastic response” and the growth (wild oats [17]) was “retarded”. The growth (barnyard grass [23]) was “retarded”, the growth (wheat [19]) was “retarded” and the epinastic response (sorghum [20]) was “epinastic response”.
With `O=C(O)c1ccccc1-n1cnc(-c2ccc(Cl)cc2)n1` [Example 6, 1-(2-carboxyphenyl)-3-(4-chlorophenyl)-1,2,4-triazole] the epinastic response (rice [1]) was “epinastic responses”, the epinastic response (nutsedge [2]) was “epinastic responses” and the epinastic response (corn [4]) was “epinastic responses”. The epinastic response (cassia [5]) was “epinastic responses”, the epinastic response (wild oats [6]) was “epinastic responses” and the epinastic response (wheat [9]) was “epinastic responses”. The epinastic response (sorghum [22]) was “epinastic responses”, the pKa [11] was 5.48 and the “Buffer Range” value [11] was 4.5 - 6.5 pH Units.
For `O=C(O)c1ccccc1-n1cnc(-c2ccc(Cl)c(Cl)c2)n1` [Example 7, 1-(2-carboxyphenyl)-3-(3,4-dichlorophenyl)-,2,4-triazole], the epinastic response (rice [1]) was “epinastic responses”, the epinastic response (nutsedge [2]) was “epinastic responses” and the epinastic response (corn [4]) was “epinastic responses”. For the same compound, the epinastic response (cassia [5]) was “epinastic responses”, the epinastic response (wild oats [6]) was “epinastic responses” and the epinastic response (wheat [9]) was “epinastic responses”. The epinastic response (sorghum [22]) was “epinastic responses”, the pKa [11] was 6.19 and the “Buffer Range” value [11] was 5.2 - 7.2 pH Units.
For `COc1ccc(-c2ncn(-c3ccccc3C(=O)O)n2)cc1` [Example 8, 1-(2-carboxyphenyl)-3-(4-methoxyphenyl)-1,2,4-triazole], the epinastic response (rice [1]) was “epinastic responses”, the epinastic response (nutsedge [2]) was “epinastic responses” and the epinastic response (corn [4]) was “epinastic responses”. For the same compound, the epinastic response (cassia [5]) was “epinastic responses”, the epinastic response (wild oats [6]) was “epinastic responses” and the epinastic response (wheat [9]) was “epinastic responses”. For the same compound, the epinastic response (sorghum [22]) was “epinastic responses”, the pKa [11] was 4.73 and the “Buffer Range” value [11] was 3.7 - 5.7 pH Units.
With `Cc1ccc(-c2ncn(-c3ccccc3C(=O)O)n2)cc1` [Example 9, 1-(2-carboxyphenyl)-3-(4-methylphenyl)-1,2,4-triazole] the epinastic response (rice [1]) was “epinastic response”, the epinastic response (nutsedge [2]) was “epinastic response” and the epinastic response (cassia [5]) was “epinastic response”. For the same compound, the epinastic response (morning glory [8]) was “epinastic response”, the epinastic response (sorghum [22]) was “epinastic response” and the epinastic response (cocklebur [10]) was “epinastic response”. For the same compound, the pKa [11] was 4.81, the “Buffer Range” value [11] was 3.8 - 5.8 pH Units and the epinastic response (rice [12]) was “epinastic response”. The epinastic response (nutsedge [13]) was “epinastic response”, the growth (bush beans) was “retarded” and the epinastic response (cassia [16]) was “epinastic response”. For the same compound, the epinastic response (morning glory [18]) was “epinastic response”, the epinastic response (sorghum [20]) was “epinastic response” and the epinastic response (cocklebur [21]) was “epinastic response”.
